Results on 41 compounds are retold here after US9556200B2, “Tricyclic compound” (TAKEDA PHARMACEUTICAL COMPANY LIMITED, priority 2012, dated 2017).

The structures appear in SMILES notation. Counter-ions that a name gives are not always drawn.

serotonin 5-HT2C receptor (VSV type isoform, stably expressed in CHO cells), sequence (P28335 33-458 I156V/N158S/I160V limits assumed): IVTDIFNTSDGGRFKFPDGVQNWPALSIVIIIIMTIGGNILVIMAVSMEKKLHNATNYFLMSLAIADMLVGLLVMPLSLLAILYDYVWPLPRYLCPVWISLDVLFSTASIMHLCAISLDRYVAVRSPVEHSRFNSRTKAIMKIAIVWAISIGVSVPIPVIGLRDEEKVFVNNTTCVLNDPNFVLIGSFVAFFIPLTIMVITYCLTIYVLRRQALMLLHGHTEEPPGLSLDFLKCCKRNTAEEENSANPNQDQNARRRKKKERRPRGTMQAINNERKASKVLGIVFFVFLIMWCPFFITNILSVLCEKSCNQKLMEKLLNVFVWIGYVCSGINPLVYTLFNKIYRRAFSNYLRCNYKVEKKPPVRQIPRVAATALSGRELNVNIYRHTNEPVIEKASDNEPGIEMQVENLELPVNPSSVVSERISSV

The assay concerns the target serotonin 5-HT2C receptor (VSV type isoform, stably expressed in CHO cells) (Homo sapiens, UniProt P28335, I156V/I160V/N158S). Briefly: cell-based. The conditions noted are these: read-out: ratio (%) relative to maximum response by 5-HT (10 μM).
For `CC(C)N1C[C@H]2CNCCc3ccc(Cl)c1c32` [Example 18, (2aR)-9-chloro-1-isopropyl-2,2a,3,4,5,6-hexahydro-1H-azepino[3,4,5-cd]indole hydrochloride], the Emax was found to be 105%.

As for `CN1CC2CNCCc3cccc1c32` (centres unmarked) [Example 4, 1-methyl-2,2a,3,4,5,6-hexahydro-1H-azepino[3,4,5-cd]indole hydrochloride], the Emax was 100%.

`CC(=O)N1C[C@H]2CNCCc3ccc(Cl)c1c32` [Example 25, 1-((2aR)-9-chloro-2,2a,3,4,5,6-hexahydro-1H-azepino[3,4,5-cd]indol-1-yl)ethanone hydrochloride]: the Emax was found to be 96%.

On to `CC(C)N1CC2CNCCc3cccc1c32` (centres unmarked) [Example 15, 1-isopropyl-2,2a,3,4,5,6-hexahydro-1H-azepino[3,4,5-cd]indole hydrochloride], for which the Emax is 98%.

Regarding `c1cc2c3c(coc3c1)CNCC2` [Example 31, 3,4,5,6-tetrahydrofuro[4,3,2-ef][3]benzazepine hydrochloride], the Emax is 85%.

With `O=S1(=O)CC2CNCCc3cccc1c32` (centres unmarked) [Example 42, 2,2a,3,4,5,6-hexahydrothieno[4,3,2-ef][3]benzazepine 1,1-dioxide hydrochloride], the Emax is 102%.

Take `Cn1cc2c3c(cccc31)CCNC2` [Example 3, 1-methyl-3,4,5,6-tetrahydro-1H-azepino[3,4,5-cd]indole]: the Emax was 106%.

Turning to `CC(=O)N1CC2CNCCc3c(Cl)cc(Cl)c1c32` (centres unmarked) [Example 23, 1-(7,9-dichloro-2,2a,3,4,5,6-hexahydro-1H-azepino[3,4,5-cd]indol-1-yl)ethanone], the Emax is 100%.

As to `Cc1ccc2c3c1N(C)C[C@H]3CNCC2` [Example 12, (2aR)-1,9-dimethyl-2,2a,3,4,5,6-hexahydro-1H-azepino[3,4,5-cd]indole 0.5 sulfate], the Emax amounted to 102%.

Turning to `O=C(c1ccccc1)N1CC2CNCCc3c(Cl)cc(Cl)c1c32` (centres unmarked) [Example 39, 7,9-dichloro-1-(phenylcarbonyl)-2,2a,3,4,5,6-hexahydro-1H-azepino[3,4,5-cd]indole hydrochloride], the Emax was determined as 93%.

Consider `c1cc2c3c(c1)OCC3CNCC2` (centres unmarked) [Example 32, 2,2a,3,4,5,6-hexahydrofuro[4,3,2-ef][3]benzazepine hydrochloride], for which the Emax came out at 97%.

In the case of `CC(=O)N1CC2CNCCc3ccc(Cl)c1c32` (centres unmarked) [Example 21, 1-(9-chloro-2,2a,3,4,5,6-hexahydro-1H-azepino[3,4,5-cd]indol-1-yl)ethanone hydrochloride], the Emax was determined as 109%.

With `CN1CC2CNCCc3c(Br)cc(Br)c1c32` (centres unmarked) [Example 14, 7,9-dibromo-1-methyl-2,2a,3,4,5,6-hexahydro-1H-azepino[3,4,5-cd]indole hydrochloride], the Emax at 10 µM stood at 87%.

`Clc1ccc2c3c1N(C1CC1)C[C@@H]3CNCC2` [Example 30, (2aS)-9-chloro-1-cyclopropyl-2,2a,3,4,5,6-hexahydro-1H-azepino[3,4,5-cd]indole]: the Emax was determined as 94%.

For `CN1CC2CNCCc3c(Br)ccc1c32` (centres unmarked) [Example 13, 7-bromo-1-methyl-2,2a,3,4,5,6-hexahydro-1H-azepino[3,4,5-cd]indole hydrochloride], the Emax is 81%.

As for `CC(C)N1C[C@@H]2CNCCc3ccc(Cl)c1c32` [Example 17, (2aS)-9-chloro-1-isopropyl-2,2a,3,4,5,6-hexahydro-1H-azepino[3,4,5-cd]indole hydrochloride], the Emax is 99%.

As for `CN1CC2CNCCc3c(Cl)ccc1c32` (centres unmarked) [Example 6, 7-chloro-1-methyl-2,2a,3,4,5,6-hexahydro-1H-azepino[3,4,5-cd]indole hydrochloride], the Emax worked out at 98%.

With `CC(C)N1CC2CNCCc3ccc(Cl)c1c32` (centres unmarked) [Example 16, 9-chloro-1-isopropyl-2,2a,3,4,5,6-hexahydro-1H-azepino[3,4,5-cd]indole hydrochloride], the Emax amounted to 101%.

For `Cc1ccc2c3c1N(C)C[C@@H]3CNCC2` [Example 11, (2aS)-1,9-dimethyl-2,2a,3,4,5,6-hexahydro-1H-azepino[3,4,5-cd]indole 0.5 sulfate], the Emax stood at 102%.

As for `O=C(c1ccccc1)N1CC2CNCCc3ccc(Cl)c1c32` (centres unmarked) [Example 37, (9-chloro-2,2a,3,4,5,6-hexahydro-1H-azepino[3,4,5-cd]indol-1-yl)(phenyl)methanone hydrochloride], the Emax was found to be 95%.

`c1cc2c3c(c[nH]c3c1)CNCC2` [Example 1, 3,4,5,6-tetrahydro-1H-azepino[3,4,5-cd]indole hydrochloride]: the Emax worked out at 104%.

In the case of `CN1CC2CNCCc3c(Cl)cc(Cl)c1c32` (centres unmarked) [Example 7, 7,9-dichloro-1-methyl-2,2a,3,4,5,6-hexahydro-1H-azepino[3,4,5-cd]indole], the Emax worked out at 97%.

Take `CN1C[C@H]2CNCCc3ccc(Cl)c1c32` [Example 8, (2aR)-9-chloro-1-methyl-2,2a,3,4,5,6-hexahydro-1H-azepino[3,4,5-cd]indole hydrochloride]: the Emax is 105%.

With `CN1CC2CNCCc3ccc(Cl)c1c32` (centres unmarked) [Example 5, 9-chloro-1-methyl-2,2a,3,4,5,6-hexahydro-1H-azepino[3,4,5-cd]indole hydrochloride], the Emax was determined as 108%.

Consider `O=C(c1ccccc1)N1CC2CNCCc3c(Cl)ccc1c32` (centres unmarked) [Example 38, (7-chloro-2,2a,3,4,5,6-hexahydro-1H-azepino[3,4,5-cd]indol-1-yl)(phenyl)methanone hydrochloride], for which the Emax turned out to be 93%.

Regarding `c1cc2c3c(csc3c1)CNCC2` [Example 41, 3,4,5,6-tetrahydrothieno[4,3,2-ef][3]benzazepine hydrochloride], the Emax was 91%.

As for `CC(C)c1ccc2c3c1N(C)CC3CNCC2` (centres unmarked) [Example 40, 9-isopropyl-1-methyl-2,2a,3,4,5,6-hexahydro-1H-azepino[3,4,5-cd]indole], the Emax was 93%.

`Clc1ccc2c3c1NCC3CNCC2` (centres unmarked) [Example 26, 9-chloro-2,2a,3,4,5,6-hexahydro-1H-azepino[3,4,5-cd]indole]: the Emax was 98%.

Regarding `CC(=O)N1CC2CNCCc3c(Cl)ccc1c32` (centres unmarked) [Example 22, 1-(7-chloro-2,2a,3,4,5,6-hexahydro-1H-azepino[3,4,5-cd]indol-1-yl)ethanone hydrochloride], the Emax worked out at 105%.

For the compound `O=C(c1ccccc1)N1CC2CNCCc3cccc1c32` (centres unmarked) [Example 36, 2,2a,3,4,5,6-hexahydro-1H-azepino[3,4,5-cd]indol-1-yl(phenyl)methanone hydrochloride], the Emax is 79%.

For `c1cc2c3c(c1)NCC3CNCC2` (centres unmarked) [Example 2, 2,2a,3,4,5,6-hexahydro-1H-azepino[3,4,5-cd]indole dihydrochloride], the Emax was found to be 107%.

For `CN1C[C@@H]2CNCCc3ccc(Cl)c1c32` [Example 9, (2aS)-9-chloro-1-methyl-2,2a,3,4,5,6-hexahydro-1H-azepino[3,4,5-cd]indole hydrochloride], the Emax turned out to be 109%.

With `CC(C)C(=O)N1CC2CNCCc3cccc1c32` (centres unmarked) [Example 34, 1-(2,2a,3,4,5,6-hexahydro-1H-azepino[3,4,5-cd]indol-1-yl)-2-methylpropan-1-one hydrochloride], the Emax worked out at 77%.

Turning to `CC(C)C(=O)N1CC2CNCCc3c(Cl)ccc1c32` (centres unmarked) [Example 35, 1-(7-chloro-2,2a,3,4,5,6-hexahydro-1H-azepino[3,4,5-cd]indol-1-yl)-2-methylpropan-1-one hydrochloride], the Emax was determined as 99%.

Regarding `CC(=O)N1CC2CNCCc3cccc1c32` (centres unmarked) [Example 20, 1-(2,2a,3,4,5,6-hexahydro-1H-azepino[3,4,5-cd]indol-1-yl)ethanone hydrochloride], the Emax worked out at 94%.

Turning to `c1ccc(CN2CC3CNCCc4cccc2c43)cc1` (centres unmarked) [Example 19, 1-benzyl-2,2a,3,4,5,6-hexahydro-1H-azepino[3,4,5-cd]indole hydrochloride], the Emax was found to be 96%.

In the case of `CCN1C[C@@H]2CNCCc3ccc(Cl)c1c32` [Example 29, (2aS)-9-chloro-1-ethyl-2,2a,3,4,5,6-hexahydro-1H-azepino[3,4,5-cd]indole hydrochloride], the Emax is 93%.

On to `Clc1ccc2c3c1OCC3CNCC2` (centres unmarked) [Example 33, 9-chloro-2,2a,3,4,5,6-hexahydrofuro[4,3,2-ef][3]benzazepine hydrochloride], for which the Emax was 94%.

For the compound `c1cc2c3c(c1)SCC3CNCC2` (centres unmarked) [Example 43, 2,2a,3,4,5,6-hexahydrothieno[4,3,2-ef][3]benzazepine hydrochloride], the Emax was determined as 107%.

Consider `Cc1ccc2c3c1N(C)CC3CNCC2` (centres unmarked) [Example 10, 1,9-dimethyl-2,2a,3,4,5,6-hexahydro-1H-azepino[3,4,5-cd]indole hydrochloride], for which the Emax amounted to 100%.

Regarding `CC(=O)N1C[C@@H]2CNCCc3ccc(Cl)c1c32` [Example 24, 1-((2aS)-9-chloro-2,2a,3,4,5,6-hexahydro-1H-azepino[3,4,5-cd]indol-1-yl)ethanone hydrochloride], the Emax came to 96%.
